ChEMBL document CHEMBL4613288, “Combined Peptide and Small-Molecule Approach toward Nonacidic THIQ Inhibitors of the KEAP1/NRF2 Interaction” (ACS Med Chem Lett, 2020)

Experiment: Apparent permeability across apical to basolateral side in MDCK-MDR1 cells measured over 60 mins
Type: ADME, cell-based, Canis lupus familiaris
Conditions: dog

Papp A→B at 1 h	Compound
0.9 ×10⁻⁶ cm/s	O=C(O)[C@H]1CCCC[C@H]1C(=O)N1CCc2c(OCCO)cccc2[C@H]1CN1C(=O)c2ccccc2C1=O
4.6 ×10⁻⁶ cm/s	O=C(OCc1ccccc1)[C@H]1CCCC[C@H]1C(=O)N1CCc2c(OS(=O)(=O)C(F)(F)F)cccc2C1CN1C(=O)c2ccccc2C1=O (some centres not stated)
